From ChEMBL document CHEMBL3727375, “Antiproliferative 1,2,3-thiadiazole compounds” (2007)
Activity calls are given as the source filed them. The rule behind the calls is not given here.

Experiments:
Lewis lung carcinoma = assay: Antitumor activity against mouse LLC allografted in ip dosed mouse assessed as tumor growth inhibition administered daily; format: functional, organism-based
[1] = Induction of apoptosis in rat IEC-18-13 cells assessed as apoptotic cells at 5 uM after 24 hrs by mitosensor dye-based fluorescence microscopy (reference value: 25%); format: functional
[2] = Induction of apoptosis in rat IEC-18-13 cells assessed as healthy cells at 5 uM after 24 hrs by mitosensor dye-based fluorescence microscopy (reference value: 75%); format: functional
Chorioallantoic membrane = assay: Antiangiogenic activity in fertilized chicken egg chorioallantoic membrane assessed as inhibition of blood vessel growth at 50 uM incubated for 2 days by dissecting microscopy relative to control; format: functional, tissue-based; settings: Gallus gallus

Row | Structure (SMILES) | TGI (Lewis lung carcinoma) | Activity [1] [%] | Activity [2] [%] | growth inhibition (GI) (Chorioallantoic membrane) [%]
1 | NC(=O)c1nnsc1Nc1ccccc1 | Active | 78 | 22 | –
2 | NC(=O)c1nnsc1Nc1cccc2ccccc12 | – | – | – | 100
